Measurements reported in US12168673B2 (Mitopower, Inc., priority 2022, dated 2024).
Where two headings read alike, the source gives them in different places.

What was measured:
[1] = tested on: Human Plasma Protein; assay: in vitro; settings: human, plasma
Method: The test compounds were weighed and prepared as 10 mM stocks in 100% DMSO. 10 μM is the final test concentration for all compounds.
The samples were prepared by spiking test compound(s) in plasma at 10 μM final concentration. 200 μL of plasma containing the test compound was added into the donor well (RED Chamber) of the insert. Simultaneously 350 μL of dialysis buffer (1×PBS) was added into the receiver well (white chamber). Two measurements were made for each test compound. The plate was covered with a sealer and incubated at 37° C. degrees on an orbital shaker at 500 rpm for 5 hours.
After incubation, 25 μl of plasma (RED chamber) and 25 μl of buffer (white chamber) samples were separately collected into separate centrifugation tubes. Plasma and buffer samples were precipitated with 200 μL of 100% acetonitrile containing internal standards. 25 μl of T0 (T Zero) plasma samples (samples before 5 hours incubation) were collected (To samples were processed immediately after the preparation of plasma working stock solution. These samples serve as a measure for calculating the percentage recovery of the test compound and precipitated using 100% acetonitrile containing internal standards). The samples were vortexed at 1000 rpm for 5 min and centrifuged at 4000 rpm for 10 min. The supernatant was diluted 2-fold with water and injected into LC-MS/MS.
The % of Plasma bound/unbound fraction was calculated by the following equation: % Unbound or % free=100*(Fc/Tc); % Recovery=100 (Fc+Tc)/[…] where Tc=Total compound concentration as determined by the calculated concentration on the plasma side of the membrane (concentration in plasma chamber), Fc=Free compound concentration as determined by the calculated concentration on the buffer side of the membrane (concentration in buffer chamber) and T0=Total compound concentration as determined before dialysis.

[2] = Solid state stability (purity by UPLC); assay type: physicochemical
Method: Compounds 100, 101 and 102 were kept in glass vials at three different locations at temperatures of […], 2-8° C. and −20° C. in order to assess solid state stability at room temperature, refrigerated conditions and in a deep freezer. The compounds from these vials were assessed for purity by UPLC at three different timepoints 0 hrs, 24 hrs and 48 hrs. Table 2 depicts the results obtained for solid state stability at 25° C., 2-8° C. and −20° C. respectively. Purity measurements were made at 0 hrs, 24 hours and 48 hours.

[3] = Kinetic solubility; assay type: physicochemical; settings: for solubility at 1.5 h: aqueous buffer, kinetic from dmso stock, 0.1 M phosphate buffered saline pH 7.4, target 100 μM; for % Solubility: at 100 μM, 0.1 M phosphate buffered saline pH 7.4
Method: The target compound concentration was 100 μM (kinetic), the assay buffer was 0.1 M phosphate buffered saline pH 7.4, the mixing period was 1.5 h (kinetic). The sample was prepared by centrifugation or filtration and the detection method used was HPLC with UV-vis spectrometry.

[4] = tested on: Jurkat Cells; assay: Cellular NAD+ levels in Jurkat cells (LCMS/MS); assay type: cell-based; settings: 30 μM, four hours of incubation
Method: Compounds 100, 101 and 102 were weighted out to prepare 60 μM stock solutions in RPMI media. 200 ng/mL solution of Rac-tenofovir d6 (Vivan Life-Sciences) was prepared in methanol (MeOH) and placed at −20° C. until use.
Jurkat Cells, sourced from NCCS Pune, were cultured in RPMI media containing FBS & Antibiotics. Cells from different flasks (90% confluent) were pooled into a 15 mL conical tube and centrifuged for 5 mins at 1200 rpm for 5 mins. The supernatant solution was discarded, and the pellet was washed with 5 mL sterile PBS (without Ca^2+ & Mg^2+). The tube was then centrifuged at 1200 rpm for 5 mins and the supernatant was discarded. The cell pellet was resuspended in 7 mL of RPMI media, and a cell count was done using 10 uL of the cell solution. 1.5 million cells from the cell solution were seeded into 1.5 mL microcentrifuge tubes. […] The tubes were placed in racks and gently swirled to mix the compounds into the media containing the cells. These tubes were then incubated for 4 hours in a 37° C. incubator at 5% CO2. After 4 hours of incubation the cells were spun down at 1000 rpm for 10 mins, the supernatant was discarded carefully, and cells were snap frozen in liquid nitrogen. When the samples were run, the extraction of the cells was on ice, cells were lysed using 20 uL deionized water and then ice cold 80% methanol containing the internal standard—Rac-Tenofovir D was added. The tubes were then vortexed at 2500 rpm for 8 minutes and then centrifuged at […] for 10 minutes. 150 uL of the supernatant was carefully transferred to HPLC vials and was analyzed for NAD^+ on the Abscised 4000 Q Trap LCMS/MS system. A C18, 3.5 μm, 2.1×100 mm, Bridge Column was used in the LC. The mobile phase consisted of 10 mM ammonium acetate with 0.1% acetic acid and 0.1% hexylamine as Solvent-A and 10 mM Ammonium acetate with 0.1% acetic acid and 0.1% hexylamine in 95/5 MeOH/H2O as Solvent-B. The gradient used was 0 mins-0.0% B, 0.5 mins-100% B, 1.5 mins-100% B, 3.0 mins-100% B, 3.1 mins-0.0% B, 7.0-STOP. The column flow rate was 0.5 mL/min. The sample injection volume was […].

[5] = tested on: human hepatocytes; assay: Human hepatocyte stability
Method: 10 mM stock solution of test compound was prepared in DMSO and diluted to a concentration of 1 mM with DMSO. Working concentration of 2 μM was prepared by further dilution with PBS. Preincubation mixture of 150 μL of hepatocyte cell suspension (1,000,000 cells/mL, INVITROGRO HT medium buffer), was added to vials for preincubation for 10 min @37° C.
150 μL of 2 μM working stock of the test compound was added to the cell suspension and incubated at @37 C at 500 rpm. The reaction was stopped at 0, 15, 30, 60 and 90 min by precipitating 50 μL of the incubation mixture with 150 μL of acetonitrile. Samples were vortexed for 5 min at 1200 rpm and centrifuged at 4000 rpm for 10 min. 150 μL of the supernatant was diluted with 150 μL of water and injected in MS system (SCIEX, API 4500 Q Trap) for analysis.

[6] = read-out: Mean Solubility (μg/mL)

Row | SMILES | protein binding (footnote, in words) [1] | Solid State Stability (% Purity) ([2]; 2-8° C., 0 hr) [%] | Solid State Stability (% Purity) ([2]; 2-8° C., 24 hr) [%] | Solid State Stability (% Purity) ([2]; 2-8° C., 48 hr) [%] | Solid State Stability (% Purity) ([2]; 25° C., 0 hr) [%] | Solid State Stability (% Purity) ([2]; 25° C., 24 hr) [%] | Solid State Stability (% Purity) ([2]; 25° C., 48 hr) [%] | Solid State Stability (% Purity) ([2]; −20° C., 0 hr) [%] | Solid State Stability (% Purity) ([2]; −20° C., 24 hr) [%] | Solid State Stability (% Purity) ([2]; −20° C., 48 hr) [%] | solubility at 1.5 h ([3]; read-out: Mean Solubility) [µM] | solubility at 1.5 h [3, 6] [µg/mL] | % Solubility [3] [%] | NAD+ level increase compared to untreated cells [4] | clearance in human hepatocytes (in words) [5] | % Parent Remaining ([5]; 0 mins) [%] | % Parent Remaining ([5]; 15 mins) [%] | % Parent Remaining ([5]; 30 mins) [%] | % Parent Remaining ([5]; 60 mins) [%] | % Parent Remaining ([5]; 90 mins) [%] | further results
1 | O=C(OC1O[C@H](CO)[C@@H](O)[C@H]1O)c1cccnc1 (stereo partly drawn) [Compound 100, (3R, 4S, 5R)-3,4-dihydroxy-5-(hydroxymethyl) tetrahydrofuran-2-yl nicotinate] | Compounds 100 and 102 were not detected indicating no protein binding as shown in Table 12, above. | 96.29 | 96.32 | 96.28 | 96.02 | 96.23 | 96.22 | 96.33 | 96.32 | 96.49 | 96.5 | 24.6 | 96 | showed statistical significance in terms of NAD^+ level increases | medium clearance | 100 | 97 | 87.6 | 73.0 | 66.4 | –
2 | COC(=O)[C@@H](C)NP(=O)(OC[C@H]1OC(OC(=O)c2cccnc2)[C@H](O)[C@@H]1O)Oc1ccccc1 (stereo partly drawn) [Compound 101, (3R, 4S, 5R)-3,4-dihydroxy-5-(((((1-methoxy-1-oxopropan-2-yl)amino)(phenoxy)phosphoryl)oxy)methyl)tetrahydrofuran-2-yl nicotinate] | – | 93.20 | 90.57 | 90.59 | 93.20 | 89.68 | 90.66 | 93.20 | 90.72 | 90.63 | 117 | 58 | 100 | showed statistical significance in terms of NAD^+ level increases | high clearance | 100 | 43 | 20.1 | 6.4 | 2.0 | Remarks (binding class) [1]: Medium binding; NAD+ level increase, comparison among the compounds [4]: highest increase
3 | O=C(OC[C@H]1OC(O)[C@H](O)[C@@H]1O)c1ccccn1 (some centres unmarked) [Compound 102, (3,4,5-trihydroxytetrahydrofuran-2-yl) methyl picolinate] | Compounds 100 and 102 were not detected indicating no protein binding as shown in Table 12, above. | 95.28 | 95.18 | 95.45 | 95.60 | 95.55 | 95.23 | 95.26 | 95.27 | 95.28 | 105 | 26.9 | 100 | showed statistical significance in terms of NAD^+ level increases | medium clearance | – | – | – | – | – | –
